Results from patent publication US5516797A, “Immunosuppressive compounds” (Vertex Pharmaceuticals, Incorporated, priority 1994, dated 1996).

Legend:
[1] = system: human peripheral blood lymphocytes; test: Human PBL + OKT3 proliferation (Table 5, assay 1); assay type: cell-based; details: Lymphocyte, [3H]TdR incorporation, estimated
Description: 1) Assay similar to Yoshimura, N. et al., Transplantation 47:356-359 (1989). Assay uses fresh human peripheral blood lymphocytes isolated by Ficoll-Hypaque density centrifugation, stimulated bythe OKT3 antibody (anti-CD3) which stimulates via interaction with CD3. Stimulation is measured by incorporation of radioactive thymidine [(^3 H)TdR] into proliferating cells, with an uninhibited control signal of 48,000-75,000 cpm. IC50 values are estimated from inhibitions of proliferation observed at various drug concentrations.

mixed lymphocyte culture = details: in vitro; cited from earlier work
CTLL cells = test: CTLL Proliferation + IL-2 (Table 5, assay 4); assay type: cell-based, murine; details: for IC50: Mus musculus, CTLL, exogenous IL-2, [3H]TdR incorporation
Description: 4) Assay according to DuMont, F. et al., J. Immunol. 144:251-258 (1990). The assay measures the stimulation of CTLL cells in response to IL-2. Proliferation is measured by incorpoation of (^3 H)TdR. […] In this assay, exogenous IL-2 is provided to overcome this block.
Fresh peripheral blood lymphocytes (PBLs) from LeukoPak cells or whole blood from random normal blood donors (tested HIV-negative and hepatitis negative) are isolated and separated by density centrifugation over Histopaque 1077 (Sigma Chemical Co., St. Louis, Mo.). The murine CTLL cytotoxic T cell line and the human Jurkat T cell line are from ATCC (CTLL-2 ATCC TIB214, JURKAT CLONE E6-1 ATCC TIBl52). The human allogeneic B cell lines used for activation of the fresh PBLs are EBV-transformed lymphocytes from normal healthy adult donors with two completely different HLAhaplotypes. All cell lines were routinely tested for the presence of Mycolasma contamination using the GibcoMycotect test kit and are Mycolasma-free. Culture medium consksts of RPMI 1640 (Gibco, Grand Island, N.Y.) containing penicillin (50 U/ml) and streptomycin (50 μg/ml), L-glutamine 2 mM, 2 mercaptoethanol (5×10^-5), 10% heat-inactivated FCS and 10 mM HEPES.

cytotoxic T-cell = details: in vitro; cited from earlier work
binding protein (FKBP) = details: cited from earlier work
T-cell hybridoma = test: Apoptosis: activation-induced (anti-CD3) cell death in T-cell hybridoma (Table 5, assay 3); assay type: cell-based; details: for Apoptosis (activation-induced cell death): at 1 μg/ml
Excerpt: 3) Assay according to Shi, Y. et al., Nature 339:625-626 (1989). The assay uses a T-cell hybridoma similar to that described. The assay measures activation-induced (anti-CD3) cell death (evaluated by counting viable cells after staining as described) in a T-cell hybridoma that mimics the effect known to occur in immature thymocytes.

CTLLs = details: cited from earlier work
PPIase = details: cited from earlier work
[2] = system: T-cell clone stimulated with antibody to TCR and CD2; test: T-Cell Hybridoma + TCR/CD2 proliferation (Table 5, assay 2); assay type: cell-based; details: [3H]TdR incorporation, estimated
Description: 2) Assay similar to above, but using T-cell clone stimulated with antibody to the T-cell receptor (TCR) and antibody to CD2. Stimulation is measured by incorporation of radioactive thymidine [(^3 H)TdR] into proliferating cells, with an uninhibited control signal of 23,000 cpm. IC50 values are estimated from inhibitions of proliferation observed at various drug concentrations.

IL-2 production = details: in vitro; cited from earlier work

| SMILES | IC50 [1] [µg/mL] | inhibition of mixed lymphocyte culture response, concentration relative to cyclosporin A (mixed lymphocyte culture) | IC50 (CTLL cells) [µg/mL] | inhibition of cytotoxic T-cell generation, concentration relative to cyclosporin A (cytotoxic T-cell) | binding to FKBP (binding protein (FKBP)) | activity in activation-induced cell death assay (in words) (T-cell hybridoma) | Apoptosis (activation-induced cell death) (T-cell hybridoma) | IL-2 dependent proliferation of the CTLLs (CTLLs) | inhibition of PPIase activity (PPIase) | IC50 [2] [µg/mL] | inhibition of IL-2 production, concentration relative to cyclosporin A (IL-2 production) | activity in CTLL / IL-2 assay (in words) (CTLL cells) |
| --- | --- | --- | --- | --- | --- | --- | --- | --- | --- | --- | --- | --- |
| C=CC[C@@H]1/C=C(\C)C[C@H](C)C[C@H](OC)[C@H]2O[C@@](O)(C(=O)C(=O)N3CCCC[C@H]3C(=O)O[C@H](/C(C)=C/[C@@H]3CC[C@@H](O)[C@H](OC)C3)[C@H](C)[C@@H](O)CC1=O)[C@H](C)C[C@@H]2OC [FK-506] | < 1 | 100 times lower concentration than cyclosporin A | > 1 | 100 times lower concentration than cyclosporin A | binds to a binding protein (FKBP) distinct from cyclophilin | inhibit this cell death | Blocks | do not | inhibits PPIase activity | < 1 | 100 times lower concentration than cyclosporin A |  |
| CO[C@H]1C[C@@H]2CC[C@@H](C)[C@@](O)(O2)C(=O)C(=O)N2CCCC[C@H]2C(=O)O[C@H]([C@H](C)C[C@@H]2CC[C@@H](O)[C@H](OC)C2)CC(=O)[C@H](C)/C=C(\C)[C@@H](O)[C@@H](OC)C(=O)[C@H](C)C[C@H](C)/C=C/C=C/C=C/1C [Rapamycin] | < 1 |  | ~0.01 |  |  | inactive | Inactive | inhibits IL-2 dependent proliferation of the CTLLs |  | < 1 |  | active |
